Several values for one entry are separate records, joined by “and”; a condition that tells them apart may be missing. Equal entries are not always repeated. Entries after “also recorded” stand apart in the source; their conditions may differ.
Key:
CT26 tumors [1] = test: Subcutaneous implanted CT26 model, h5D8 combined with cisplatin, doxorubicin or paclitaxel; assay type: in vivo, mouse; conditions: individual BALB/c mice, h5D8 15 mg/kg twice a week, cisplatin 10 mg/kg once a week, paclitaxel 15 mg/kg twice a week, doxorubicin 4 mg/kg once a week
[2] = tested on: LIF-induced STAT3 phosphorylation in U251 glioma cells; test: Inhibition of LIF-induced STAT3 phosphorylation (Tyr705) by western blot, 5D8 humanization panel; assay type: cell-based, human; conditions: serum starved, antibody 10 μg/ml over night
Method: One clone from the rat immunization (5D8) was chosen for subsequent humanization. Humanization was conducted using standard CDR grafting methods. The heavy chain and light chain regions were cloned from the 5D8 hybridoma using standard molecular cloning techniques and sequenced by the Sanger method. A BLAST search was then conducted against human heavy chain and light chain variable sequences and 4 sequences from each were chosen as acceptor frameworks for humanization. These acceptor frameworks were deimmunized to remove T cell response epitopes. The heavy chain and light chain CDR1, CDR2 and CDR3 of 5D8 were cloned into the 4 different heavy chain acceptor frameworks (H1 to H4), and 4 different light chain frameworks (L1 to L4). Then all 16 different antibodies were tested for: expression in CHO-S cells (Selexis); inhibition of LIF-induced STAT3 phosphorylation; and binding affinity by Surface Plasmon Resonance (SPR). These experiments are summarized in
Inhibition of LIF-induced STAT3 phosphorylation at tyrosine 705 was determined by western blot. […] After treatment, proteins were obtained in radio-immunoprecipitation assay (RIPA) lysis buffer containing phosphatase and protease inhibitors, quantified (BCA-protein assay, Thermo Fisher Scientific) and used in western blot. […] Proteins were detected by chemiluminescence (SuperSignal Substrate, catalog #34076, Thermo Fisher Scientific). […]

ID8 cells = test: Ovarian orthotopic syngeneic tumor model ID8 in mice; assay type: in vivo; conditions: 200 μg/mouse and above twice weekly, FIG. 8C
Method: The efficacy of r5D8 was evaluated in two other syngeneic tumor models.
ID8 cells were cultured in Dulbecco's Modified Eagle Medium (DMEM) (Gibco, Invitrogen), supplemented with 10% Fetal Bovine Serum (FBS) (Gibco, Invitrogen), 40 U/mL Penicillin and 40 μg/mL Streptomycin (PenStrep) (Gibco, Invitrogen) and 0.25 μg/mL Plasmocin (Invivogen).
The ID8 cells were harvested, washed in PBS, centrifuged at 400 g for 5 min and resuspended in PBS. Cells were kept on ice to maintain optimal viability and 200 μL of the cell suspension was injected intraperitoneally with a 27G needle. The final cell number implanted into mice was 5×10^6.
Mice were treated twice weekly with h5D8 administered ip at different doses as indicated. Body weights were measured 2 times/week and tumor progression was monitored by measuring abdominal girth using a caliper (Fisher Scientific).

[3] = tested on: KLN205 non-small cell lung cancer (NSCLC) cells; test: Orthotopic syngeneic mouse model of non-small cell lung carcinoma (KLN205); assay type: in vivo; conditions: DBA/2 mice, 15 mg/kg or 30 mg/kg intraperitoneally twice a week, versus vehicle
Method: To determine the ability of the humanized 5D8 clone to inhibit a LIF positive cancer in vivo this antibody was tested in a mouse model of non-small cell lung carcinoma (NSCLC).
The murine non-small cell lung cancer (NSCLC) cell line KLN205 with high LIF levels was stably infected with lentivirus expressing the firefly luciferase gene for in vivo bioluminescence monitoring. To develop the mouse model, 5×10^5KLN205 non-small cell lung cancer (NSCLC) cells were orthotopically implanted into the left lung of 8-week-old immunocompetent syngeneic DBA/2 mice by intercostal puncture. […] For the bioluminescence imaging, mice received an intraperitoneal injection of 0.2 mL of 15 mg/mL D-luciferin under 1-2% inhaled isoflurane anesthesia. The bioluminescence signals were monitored using the IVIS system 2000 series (Xenogen Corp., Alameda, Calif., USA) consisting of a highly sensitive cooled CCD camera. Living Image software (Xenogen Corp.) was used to grid the imaging data and integrate the total bioluminescence signals in each boxed region. Data were analyzed using the total photon flux emission (photons/second) in the regions of interest (ROI). […] Data are presented as mean±SEM.

CT26 tumors [4] = test: Subcutaneous colon CT26 syngeneic tumor model in mice; assay type: in vivo, mouse; conditions: FIG. 10E
Method: CT26 cells were cultured in Roswell Park Memorial Institute medium (RPMI [Gibco, Invitrogen]), supplemented with 10% Fetal Bovine Serum (FBS), 40 U/mL penicillin and 40 μg/mL streptomycin (PenStrep) and 0.25 μg/mL Plasmocin.
CT26 cells (8×10^5)were trypsinized, rinsed with PBS, centrifuged at 400 g for 5 minutes and resuspended in 100 μL PBS. Cells were kept on ice to avoid cell death. The CT26 cells were administered to mice via subcutaneous injection using a 27G needle.
300 μg r5D8, or vehicle control, was administered to the mice via intraperitoneal injection (IP) twice weekly from day 3 post CT26 cell implant.
Body weight and tumor volumes were measured three times per week. Tumor volume was measured using a caliper (Fisher Scientific).

[5] = tested on: STAT3 phosphorylation (Tyr 705) in U251 glioma cells; test: Inhibition of STAT3 phosphorylation in glioma cell culture model of LIF activation, western blot; assay type: cell-based, human; conditions: 10 μg/ml over night, FIG. 2A
Method: U251 glioma cells were plated in 6-well plates at a density of 150,000 cells/well. Cells were cultured in complete medium for 24 hours before any treatment.
After treatment, proteins were obtained in radio-immunoprecipitation assay (RIPA) lysis buffer containing phosphatase and protease inhibitors, quantified (BCA-protein assay, Thermo Fisher Scientific) and used in western blot. For western blot, membranes were blocked for 1 hour in 5% non-fatty milk—TBST and incubated with the primary antibody overnight (p-STAT3, catalog #9145, Cell Signaling or STAT3, catalog #9132, Cell Signaling) or 30 minutes (β-actin-peroxidase, catalog #A3854, Sigma-Aldrich). Membranes were then washed with TBST, incubated with secondary antibody if necessary, and washed again. Proteins were detected by chemiluminescence (SuperSignal Substrate, catalog #34076, Thermo Fisher Scientific).

human U251 GBM cells = test: Orthotopic GBM tumor model with luciferase expressing U251 cells in mice; assay type: in vivo; conditions: 200 μg or 300 μg twice a week, FIG. 7B
Method: Results of this study are shown in FIG. 7A (quantitation at day 26 post treatment). […] Tumor size was determined by bioluminescence (Xenogen IVIS Spectrum) on day 7. […] Statistical significance was calculated using the unpaired non-parametric Mann-Whitney U-test.
U251 cells stably expressing luciferase were harvested, washed in PBS, centrifuged at 400 g for 5 min, resuspended in PBS and counted with an automated cell counter (Countess, Invitrogen). Cells were kept on ice to maintain optimal viability. Mice were anaesthetized with intraperitoneal administration of Ketamine (Ketolar50®)/Xylacine (Rompún®) (75 mg/kg and 10 mg/kg respectively). Each mouse was carefully placed in the stereotactic device and immobilized. […]
Body weight and tumor volume: Body weight was measured 2 times/week and tumor growth was quantified by bioluminescence on day 7 (Xenogen IVIS Spectrum). To quantify bioluminescence activity in vivo, mice were anaesthetized using isofluorane, and injected intraperitoneally with luciferin substrate (PerkinElmer) ([…]).
Tumor size as determined by bioluminescence (Xenogen IVIS Spectrum) was evaluated at day 7. The individual tumor measurements and mean±SEM for each treatment group were calculated. Statistical significance was determined by the unpaired non-parametric Mann-Whitney U-test.

[6] = tested on: CCL22 and CD206 (MRC1) expression in patient samples; test: Human organotypic tissue slice culture model, M2 macrophage markers; assay type: cell-based; conditions: three patient samples, FIG. 10B

Compound: N.N.[Cl][Pt][Cl] [Cisplatin, cis-diamminedichloridoplatinum(II)]
- Tumor Volumes at Endpoint (Day 21) (CT26 tumors [1]): 328.5 mm^3 and 1279.7 mm^3 and 689.4 mm^3 and 512.3 mm^3 and 193.9 mm^3 and 997.5 mm^3 and 257.9 mm^3 and 924.4 mm^3 and 744.2 mm^3 and 1313.6 mm^3 and 676.0 mm^3 and 953.8 mm^3

Compound: COc1cccc2c1C(=O)c1c(O)c3c(c(O)c1C2=O)C[C@@](O)(C(=O)CO)C[C@@H]3O[C@H]1C[C@H](N)[C@H](O)[C@H](C)O1 [Doxorubicin]
- Tumor Volumes at Endpoint (Day 21) (CT26 tumors [1]): 408.7 mm^3 and 1207.4 mm^3 and 94.2 mm^3 and 109.1 mm^3 and 294.9 mm^3 and 780.2 mm^3 and 351.2 mm^3 and 735.2 mm^3 and 48.9 mm^3 and 463.9 mm^3 and 588.8 mm^3 and 230.3 mm^3

Compound: CC(=O)O[C@H]1C(=O)[C@@]2(C)[C@H]([C@H](OC(=O)c3ccccc3)[C@]3(O)C[C@H](OC(=O)[C@H](O)[C@@H](NC(=O)c4ccccc4)c4ccccc4)C(C)=C1C3(C)C)[C@]1(OC(C)=O)CO[C@@H]1C[C@@H]2O [Paclitaxel]
- Tumor Volumes at Endpoint (Day 21) (CT26 tumors [1]): 651.8 mm^3 and 214.0 mm^3 and 461.5 mm^3 and 698.3 mm^3 and 457.7 mm^3 and 256.2 mm^3 and 592.2 mm^3 and 435.9 mm^3 and 762.1 mm^3 and 1236.2 mm^3 and 112.9 mm^3

Compound: h5D8: humanized (CDR grafted) version of rat anti-LIF antibody 5D8, H2 heavy and L2 light chain; VH SEQ ID NO: 42, VL SEQ ID NO: 46
- Inhibition of LIF-induced STAT3 phosphorylation (FIG. 1, in words) [2]: high
- tumor volume / tumor growth (ID8 cells): reduced tumor volume; also recorded: significant reduction in tumor growth
- tumor growth by bioluminescence [3]: promote tumor regression
- tumor growth by bioluminescence ([3]; listed as humanized 5D8): reduced tumor growth
- inflammatory phenotype of tumor associated macrophages (TAMs) (CT26 tumors [4]; 15 mg/kg, 2 QW, day 25 (endpoint)): polarized towards the M1 pro-inflammatory phenotype
- macrophages with an M1 phenotype (CD206 negative/MHCII positive fraction) (CT26 tumors [4]; syngeneic CT26 tumor model): increased
- macrophages with an M2 phenotype (CD206 positive/MHCII negative fraction) (CT26 tumors [4]; syngeneic CT26 tumor model): decreased
- inhibition of STAT3 phosphorylation (Tyr 705) versus parental antibody [5]: increased inhibition
- tumor size by bioluminescence on day 7 (human U251 GBM cells): statistically significant reduction in tumor
- CCL22 and CD206 (MRC1) expression [6]: significant decrease
- Tumor Volumes at Endpoint (Day 21) (CT26 tumors [1]): 656.8 mm^3 and 1354.4 mm^3 and 1190.7 mm^3 and 1109.1 mm^3 and 906.6 mm^3 and 640.3 mm^3 and 0.0 mm^3 and 956.9 mm^3 and 318.7 mm^3 and 253.6 mm^3 and 1408.5 mm^3 and 508.3 mm^3

Reference: patent US20210187106A1, “COMBINATION OF LIF INHIBITORS AND PLATINUM-BASED ANTINEOPLASTIC AGENTS FOR USE IN TREATING CANCER” (MEDIMMUNE LIMITED, priority 2018, published 2021)
